Values of other authors in patent US20240228797A1, “LIQUID REPELLENT SLIPPERY SURFACES AND METHODS OF PREPARATION THEREOF” (priority 2021, published 2024).

water solubility: extremely low water solubility
Compound: CC(C)CCCC(C)CCCC(C)CCCCC(C)CCCC(C)CCCC(C)C (stereo not shown) [Squalane, squalane]
